Tests used:
MDA-MB-231 cells = assay: Cell growth (proliferation) assay (MTT); format: cell-based, human; conditions: for PROLIFERATION (24 hours) / growth (number of cells): Normoxia; for growth (number of cells): 48 hours
Method: (§1) Cells were plated at 2×10^4 cells/ml in 24-well plates (Becton-Dickinson) and allowed to settle overnight. The cells were then treated for the required time of incubation (24 hours+), with medium changes every 24 hours. At the end of the treatment, the medium was removed, and this was followed by the colorimetric 3-[4,5-dimethylthiazol-2-yl]-2,5-diphenyltetrazolium bromide (MTT) assay (Grimes et al., 1995). Briefly, 0.1 ml MTT (5 mg/ml made up in the growth medium) and 0.4 ml growth medium was added in each well and the plate was incubated for 3-4 hours at 37° C. The medium was then removed from the chambers and replaced with 0.5 ml dimethyl sulfoxide (DMSO) and 0.063 ml glycine buffer (0.1 M glycine and 0.1 M NaCl; pH 10.5). Absorbance at 570 nm was determined 15 minutes after the addition of the glycine buffer. Results were calculated as means of nine repeats of each of the treatment vs. control spectrophotometer readings from individual invasion wells.
(§2) With the exception of single cell adhesion tests, which are discussed in the following paragraph, experiments were carried out under either; • (i) normal normoxic conditions ([…], 5% carbon dioxide), or • (ii) following 24 hours hypoxic pre-treatment (2% O2, 5% CO2, 93% N2) continued during the assays.

Mat-LyLu cells [1] = assay: Transverse migration assay (Transwell); format: cell-based, rat
Method: This assay was used to represent the ability of cells to migrate as they intra/extravasate. […] The insert 602 has a migration filter membrane 605 in its base with 8 μm pores 606 extending therethrough.
Cells 607 were plated at a density of 2×10^4/ml on the filter membrane 605 and placed under a growth medium 608 containing 1% foetal bovine serum (FBS). A chemotactic gradient was created across the filter membrane 605 by placing growth medium 609 containing 10% FBS in the lower section 604 of the chamber.
Cells were allowed to migrate across the filter membrane 605 over a period of 24 hours, cells migrating and adhering to the underside of the filter membrane 605.
At the end of each assay, non-migrated cells were removed from the upper surface of the insert 602 with two different swabs
(§3) The number of cells migrating to the underside of the insert 602 was determined using crystal violet staining. Migrated cells were fixed for 15 minutes with ice-cold methanol. Then 0.5% crystal violet (in 25% methanol) was added for 15 minutes. The inserts were swabbed again and then washed in water and allowed to dry. Cells were then counted using twelve separate fields of view per insert (×200 magnification).
as §2

Mat-LyLu cells [2] = assay: Invasion assay (Matrigel Transwell); format: cell-based, rat
Text: This assay is an extension of the transverse migration assay described above. To “invade”, the cells need both (i) to move as in the transverse migration assay and (ii) secrete a proteolytic enzyme to digest their surroundings. The ability of cells to invade neighbouring tissues by enzyme secretion was therefore assessed by using a layer of Matrigel™ (BD Biosciences) spread across the porous membrane of a Transwell® insert.
FIG. 7 is a schematic side sectional view of an invasion chamber 701 having a Transwell® insert 702 separating the chamber into upper 703 and lower 704 sections. The insert 702 has a migration filter membrane 705 in its base with 8 μm pores 706 extending therethrough. A layer 707 of Matrigel™ is shown coating the filter membrane 705.
Cells 708 were plated at a density of 2×10^4/ml onto the Matrigel™ layer 707 in 24-well plates (Becton-Dickinson) according to the manufacturers' instructions. 50 μl Matrigel™ was seeded at a 1:7 dilution (10 mg/ml stock) onto the inserts and left overnight. Prior to seeding with the cells the Matrigel™ was rehydrated using medium with no additions. This medium was removed prior to seeding the cells.
Cells were plated in a 1-5% FBS chemotactic gradient overnight (12 hours). The nutrient concentration in the medium 709 in the upper section 703 of the chamber was less than the concentration of nutrient in the medium 710 in the lower section 704 to induced movement of the cells through the Matrigel™ layer 707 and through the pores 706 to the underside of the filter membrane 705. At the end of each assay, non-invaded/non-migrated cells were removed from the upper surface of the insert 702 with two different swabs.
as §3, with “invading” for “migrating”, “702” for “602”, “Invaded” for “Migrated”, “magnification). If the difference in the average number of cells invading the two control inserts was more than 40%, the experiment was rejected.” for “magnification).”
as §2

Mat-LyLu cells [3] = assay: Cell growth (proliferation) assay (MTT); format: cell-based, rat
Method: as §1, §2

[4] = Hypoxia, 20 μM, listed as RANOLAZINE
[5] = Hypoxia, 50 μM, listed as RANOLAZINE
[6] = Hypoxia, 300 μM, listed as RANOLAZINE
[7] = Normoxia, 20 μM, listed as RANOLAZINE
[8] = Normoxia, 50 μM, listed as RANOLAZINE
[9] = Normoxia, 300 μM, listed as RANOLAZINE

Compound: COc1ccccc1OCC(O)CN1CCN(CC(=O)Nc2c(C)cccc2C)CC1 (stereo not shown) [ranolazine]
- growth (MDA-MB-231 cells; Hypoxia, same concentrations (1 μM, 10 μM and 100 μM), results not shown): did not affect the growth
- PROLIFERATION (24 hours) (MDA-MB-231 cells; 1 μM): no significant difference
- PROLIFERATION (24 hours) (MDA-MB-231 cells; 1 μM, listed as RANOLAZINE): no effect
- growth (number of cells) (MDA-MB-231 cells; 1 μM): no statistically significant difference
- PROLIFERATION (24 hours) (MDA-MB-231 cells; 10 μM): no significant difference
- PROLIFERATION (24 hours) (MDA-MB-231 cells; 10 μM, listed as RANOLAZINE): no effect
- growth (number of cells) (MDA-MB-231 cells; 10 μM): no statistically significant difference
- PROLIFERATION (24 hours) (MDA-MB-231 cells; 100 μM): no significant difference
- PROLIFERATION (24 hours) (MDA-MB-231 cells; 100 μM, listed as RANOLAZINE): no effect
- growth (number of cells) (MDA-MB-231 cells; 100 μM): no statistically significant difference
- TRANSVERSE MIGRATION (Mat-LyLu cells [1]; Hypoxia, 20 μM): reduced the transverse migration of the cells in a statistically significant way
- TRANSVERSE MIGRATION (Mat-LyLu cells [1]; [4]): decreased
- TRANSVERSE MIGRATION (Mat-LyLu cells [1]; Hypoxia, 50 μM): reduced the transverse migration of the cells in a statistically significant way
- TRANSVERSE MIGRATION (Mat-LyLu cells [1]; [5]): decreased
- TRANSVERSE MIGRATION (Mat-LyLu cells [1]; Hypoxia, 300 μM): reduced the transverse migration of the cells in a statistically significant way
- TRANSVERSE MIGRATION (Mat-LyLu cells [1]; [6]): decreased
- TRANSVERSE MIGRATION (Mat-LyLu cells [1]; Normoxia, 20 μM): reduced the transverse migration
- TRANSVERSE MIGRATION (Mat-LyLu cells [1]; [7]): decreased
- TRANSVERSE MIGRATION (Mat-LyLu cells [1]; Normoxia, 50 μM): reduced the transverse migration
- TRANSVERSE MIGRATION (Mat-LyLu cells [1]; [8]): decreased
- TRANSVERSE MIGRATION (Mat-LyLu cells [1]; Normoxia, 300 μM): not statistically significant
- TRANSVERSE MIGRATION (Mat-LyLu cells [1]; [9]): no effect
- potency on transverse migration compared with positive control TTX (Mat-LyLu cells [1]; higher concentrations tested, TTX 1 μmol): more potent than the toxin (TTX)
- INVASIVENESS (no pretreatment) (Mat-LyLu cells [2]; Hypoxia, 20 μM): reduced the migration of the cells in a statistically significant way
- INVASIVENESS (no pretreatment) (Mat-LyLu cells [2]; [4]): decreased
- INVASIVENESS (no pretreatment) (Mat-LyLu cells [2]; Hypoxia, 50 μM): reduced the migration of the cells in a statistically significant way
- INVASIVENESS (no pretreatment) (Mat-LyLu cells [2]; [5]): decreased
- INVASIVENESS (no pretreatment) (Mat-LyLu cells [2]; Hypoxia, 300 μM): reduced the migration of the cells in a statistically significant way
- INVASIVENESS (no pretreatment) (Mat-LyLu cells [2]; [6]): decreased
- INVASIVENESS (no pretreatment) (Mat-LyLu cells [2]; Normoxia, 20 μM): reduced the migration of the cells in a statistically significant way
- INVASIVENESS (no pretreatment) (Mat-LyLu cells [2]; [7]): decreased
- INVASIVENESS (no pretreatment) (Mat-LyLu cells [2]; Normoxia, 50 μM): reduced the migration of the cells in a statistically significant way
- INVASIVENESS (no pretreatment) (Mat-LyLu cells [2]; [8]): decreased
- INVASIVENESS (no pretreatment) (Mat-LyLu cells [2]; Normoxia, 300 μM): reduced the migration of the cells in a statistically significant way
- INVASIVENESS (no pretreatment) (Mat-LyLu cells [2]; [9]): decreased
- potency on invasiveness compared with positive control TTX (Mat-LyLu cells [2]; higher concentrations tested, TTX 1 μM): more potent than the toxin (TTX)
- PROLIFERATION (24 hours) (Mat-LyLu cells [3]; Hypoxia, 20 μM): did not result in any statistically significant effect
- PROLIFERATION (24 hours) (Mat-LyLu cells [3]; [4]): no effect
- PROLIFERATION (24 hours) (Mat-LyLu cells [3]; Hypoxia, 50 μM): did not result in any statistically significant effect
- PROLIFERATION (24 hours) (Mat-LyLu cells [3]; [5]): no effect
- PROLIFERATION (24 hours) (Mat-LyLu cells [3]; Hypoxia, 300 μM): reduction in the number of cells
- PROLIFERATION (24 hours) (Mat-LyLu cells [3]; [6]): tail off
- PROLIFERATION (24 hours) (Mat-LyLu cells [3]; Normoxia, 20 μM): did not result in any statistically significant effect
- PROLIFERATION (24 hours) (Mat-LyLu cells [3]; [7]): no effect
- PROLIFERATION (24 hours) (Mat-LyLu cells [3]; Normoxia, 50 μM): did not result in any statistically significant effect
- PROLIFERATION (24 hours) (Mat-LyLu cells [3]; [8]): no effect
- PROLIFERATION (24 hours) (Mat-LyLu cells [3]; Normoxia, 300 μM): did not result in any statistically significant effect
- PROLIFERATION (24 hours) (Mat-LyLu cells [3]; [9]): tail off

Compound: Nc1nc2ccc(OC(F)(F)F)cc2s1 [riluzole]
- PROLIFERATION (24 hours) (MDA-MB-231 cells; 1 μM): no effect
- PROLIFERATION (24 hours) (MDA-MB-231 cells; 10 μM): no effect
- PROLIFERATION (24 hours) (MDA-MB-231 cells; 100 μM): reduced the proliferation of the cells in a statistically significant way
- PROLIFERATION (24 hours) (MDA-MB-231 cells; 100 μM, listed as RILUZOLE): tail off
- growth (number of cells) (MDA-MB-231 cells; 100 μM): reduced the proliferation of the cells in a statistically significant way
- INVASIVENESS (no pretreatment) (Mat-LyLu cells [2]; Hypoxia, 1 μM, listed as RILUZOLE): decreased
- INVASIVENESS (no pretreatment) (Mat-LyLu cells [2]; Hypoxia, 1 μM, listed as Riluzole): significantly inhibited invasiveness
- INVASIVENESS (no pretreatment) (Mat-LyLu cells [2]; Hypoxia, 2.5 μM): decreased
- INVASIVENESS (no pretreatment) (Mat-LyLu cells [2]; Hypoxia, 5 μM): decreased
- INVASIVENESS (no pretreatment) (Mat-LyLu cells [2]; Normoxia, 1 μM, listed as RILUZOLE): decreased
- INVASIVENESS (no pretreatment) (Mat-LyLu cells [2]; Normoxia, 1 μM, listed as Riluzole): significantly inhibited invasiveness
- INVASIVENESS (no pretreatment) (Mat-LyLu cells [2]; Normoxia, 2.5 μM): decreased
- INVASIVENESS (no pretreatment) (Mat-LyLu cells [2]; Normoxia, 5 μM): decreased
- cell proliferation with increasing concentration (Mat-LyLu cells [3]; 3 μM, 5 μM, 10 μM and 30 μM, 24 hours, normoxia and hypoxia (2% O2)): decreased cell proliferation dose dependently under both normoxia and hypoxia; the effect was greater under hypoxia
- PROLIFERATION (24 hours) (Mat-LyLu cells [3]; Hypoxia, 3 μM): no effect
- PROLIFERATION (24 hours) (Mat-LyLu cells [3]; Hypoxia, 5 μM): tail off
- PROLIFERATION (24 hours) (Mat-LyLu cells [3]; Hypoxia, 10 μM): tail off
- PROLIFERATION (24 hours) (Mat-LyLu cells [3]; Hypoxia, 30 μM): tail off
- PROLIFERATION (24 hours) (Mat-LyLu cells [3]; Normoxia, 3 μM): no effect
- PROLIFERATION (24 hours) (Mat-LyLu cells [3]; Normoxia, 5 μM): tail off
- PROLIFERATION (24 hours) (Mat-LyLu cells [3]; Normoxia, 10 μM): tail off
- PROLIFERATION (24 hours) (Mat-LyLu cells [3]; Normoxia, 30 μM): tail off

— patent US12534444B2, “Treatment of cancer/inhibition of metastasis” (Celex Oncology Innovations Limited, priority 2010, dated 2026)
